Test results published in ChEMBL document CHEMBL5104091, “Pyridazine as a privileged structure: An updated review on anticancer activity of pyridazine containing bioactive molecules” (Eur J Med Chem, 2021).
In brackets after ≈: the same amount, converted by molar mass. Values belong to the compound of their own block, whether it stands above or below them.

Tests used:
HCT-116 [1] = test: Cytotoxicity against human HCT-116 cells assessed as cell growth inhibition measured after 48 hrs by SRB assay; format: functional, cell-based; details: HCT-116, 48 h
[2] = In vivo inhibition of VEGFR2 in Swiss albino mouse implanted with mouse Ehrlich cells incubated for 24 hrs by immunohistochemical staining based analysis relative to control; format: functional
[3] = target: Vascular endothelial growth factor receptor 3 (Homo sapiens) (UniProt P35916); test: Inhibition of VEGFR3 (unknown origin) at 10 uM by ELISA relative to control
HCT-116 [4] = test: Cytotoxicity against human HCT-116 cells assessed as cell growth inhibition measured after 72 hrs by MTT assay; format: functional, cell-based; details: HCT-116, 72 h
[5] = target: T1, Vascular endothelial growth factor receptor 2 (Homo sapiens, UniProt P35968); test: Inhibition of VEGFR2 (unknown origin) using poly (Glu,Tyr) 4:1 as substrate measured after 5 mins in presence of ATP by ELISA method
MCF7 [6] = test: Cytotoxicity against human MCF7 cells assessed as cell growth inhibition measured after 72 hrs by MTT assay; format: functional, cell-based; details: MCF7, 72 h
MDA-MB-468 = test: Cytotoxicity against human MDA-MB-468 cells assessed as cell growth reduction measured after 48 hrs by MTT assay; format: functional, cell-based; details: MDA-MB-468, 48 h
HepG2 [7] = test: Cytotoxicity against human HepG2 cells assessed as cell growth inhibition after 48 hrs by SRB assay; format: functional, cell-based; details: HepG2, 48 h
MCF7 [8] = test: Induction of apoptosis in human MCF7 cells assessed as early apoptotic cells incubated for 24 hrs by annexin-V/FITC and propidium iodide staining based flow cytometry analysis; format: functional
Hep 3B2 [9] = test: Induction of apoptosis in human Hep3B cells assessed as early apoptotic cells incubated for 24 hrs by annexin-V/FITC and propidium iodide staining based flow cytometry analysis; format: functional
Hep 3B2 [10] = test: Antiproliferative activity against human Hep3B assessed as cell growth inhibition measured after 72 hrs by CCK-8 assay; format: functional, cell-based
MCF7 [11] = test: Antiproliferative activity against human MCF7 assessed as cell growth inhibition measured after 72 hrs by CCK-8 assay; format: functional, cell-based; details: MCF7, 72 h
MDA-MB-231 = test: Antiproliferative activity against human MDA-MB-231 cells assessed as cell growth inhibition measured after 48 hrs by WST-1 assay; format: functional, cell-based; details: MDA-MB-231, 48 h
HepG2 [12] = test: Cytotoxicity against human HepG2 cells assessed as cell growth inhibition measured after 72 hrs by MTT assay; format: functional, cell-based; details: HepG2, 72 h
A549 [13] = test: Cytotoxicity against human A549 cells assessed as cell growth inhibition measured after 72 hrs by MTT assay; format: functional, cell-based; details: A549, 72 h
HepG2 [14] = test: Antiproliferative activity against human HepG2 cells assessed as cell growth inhibition incubated for 48 hrs by MTT assay; format: functional, cell-based; details: HepG2, 48 h
MCF7 [15] = test: Antiproliferative activity against human MCF7 cells assessed as cell growth inhibition incubated for 48 hrs by MTT assay; format: functional, cell-based; details: MCF7, 48 h
[16] = Inhibition of tyrosine kinase (unknown origin); parameters: species or system Homo sapiens
MCF7 [17] = test: Antiproliferative activity against human MCF7 cells assessed as cell growth inhibition; format: functional, cell-based
MCF-12A = test: Antiproliferative activity against human MCF-12A cells assessed as cell growth inhibition; format: functional, cell-based
PC-3 = test: Cytotoxicity against human PC-3 cells assessed as cell growth inhibition by MTT assay; format: functional, cell-based
[18] = target: T2, Poly [ADP-ribose] polymerase 1 (Homo sapiens, UniProt P09874); test: Inhibition of PARP1 (unknown origin) by colorimetric assay
[19] = target: T1, Vascular endothelial growth factor receptor 2; test: Binding affinity to VEGFR2 (unknown origin) at 10 uM using ULight-4E-BP1 peptide as substrate incubated for 1 hr in presence of ATP by fluorescence based analysis relative to control
[20] = target: T2, Poly [ADP-ribose] polymerase 1; test: Displacement of [125I]KX1 from PARP1 in human OVCAR-8 cells incubated for 1 hr by wizard gamma counter analysis; format: cell-based
Ca-Ski = test: Cytotoxicity against human Ca-Ski cells assessed as cell growth inhibition measured after 45 hrs by MTT assay; format: functional, cell-based
HepG2 [21] = test: Cytotoxicity against human HepG2 cells assessed as cell growth inhibition measured after 45 hrs by MTT assay; format: functional, cell-based; details: HepG2, 45 h
A549 [22] = test: Cytotoxicity against human A549 cells assessed as cell growth inhibition measured after 45 hrs by MTT assay; format: functional, cell-based; details: A549, 45 h
A498 = test: Cytotoxicity against human A498 cells assessed as cell growth inhibition measured after 45 hrs by MTT assay; format: functional, cell-based; details: A498, 45 h
SiHa = test: Cytotoxicity against human SiHa cells assessed as cell growth inhibition measured after 45 hrs by MTT assay; format: functional, cell-based
HCT-116 [23] = test: Cytotoxicity against human HCT-116 cells assessed as cell growth inhibition by colorimetric method; format: functional, cell-based
ECa-109 cell line = test: Antiproliferative activity against human EC109 cells assessed as inhibition of cell growth; format: functional, cell-based; details: read-out: IC50
SK-MEL = test: Cytotoxicity against human SK-MEL cells assessed as cell growth inhibition; format: functional, cell-based
KB = test: Cytotoxicity against human KB cells assessed as cell growth inhibition; format: functional, cell-based
HT-29 = test: Antiproliferative activity against human HT-29 cells assessed as cell growth inhibition by propidium iodide staining based fluorescence assay; format: functional
MIA PaCa-2 = test: Antiproliferative activity against human MIA PaCa-2 cells assessed as cell growth inhibition by propidium iodide staining based fluorescence assay; format: functional
A549 [24] = test: Antiproliferative activity against human A549 cells assessed as cell growth inhibition measured after 48 hrs by MTT assay; format: functional, cell-based; details: A549, 48 h
MCF7 [25] = test: Cytotoxicity against human MCF7 cells assessed as cell growth inhibition by colorimetric method; format: functional, cell-based
A549 [26] = test: Potency index, ratio of Sorafenib IC50 to compound IC50 for antiproliferative activity against human A549 cells assessed as cell growth inhibition measured after 48 hrs by MTT assay; format: functional
[27] = target: T1, Vascular endothelial growth factor receptor 2; test: Inhibition of VEGFR2 (unknown origin) using ULight-4E-BP1 peptide as substrate incubated for 1 hr in presence of ATP by fluorescence based analysis

T2 sequence (P09874 whole entry): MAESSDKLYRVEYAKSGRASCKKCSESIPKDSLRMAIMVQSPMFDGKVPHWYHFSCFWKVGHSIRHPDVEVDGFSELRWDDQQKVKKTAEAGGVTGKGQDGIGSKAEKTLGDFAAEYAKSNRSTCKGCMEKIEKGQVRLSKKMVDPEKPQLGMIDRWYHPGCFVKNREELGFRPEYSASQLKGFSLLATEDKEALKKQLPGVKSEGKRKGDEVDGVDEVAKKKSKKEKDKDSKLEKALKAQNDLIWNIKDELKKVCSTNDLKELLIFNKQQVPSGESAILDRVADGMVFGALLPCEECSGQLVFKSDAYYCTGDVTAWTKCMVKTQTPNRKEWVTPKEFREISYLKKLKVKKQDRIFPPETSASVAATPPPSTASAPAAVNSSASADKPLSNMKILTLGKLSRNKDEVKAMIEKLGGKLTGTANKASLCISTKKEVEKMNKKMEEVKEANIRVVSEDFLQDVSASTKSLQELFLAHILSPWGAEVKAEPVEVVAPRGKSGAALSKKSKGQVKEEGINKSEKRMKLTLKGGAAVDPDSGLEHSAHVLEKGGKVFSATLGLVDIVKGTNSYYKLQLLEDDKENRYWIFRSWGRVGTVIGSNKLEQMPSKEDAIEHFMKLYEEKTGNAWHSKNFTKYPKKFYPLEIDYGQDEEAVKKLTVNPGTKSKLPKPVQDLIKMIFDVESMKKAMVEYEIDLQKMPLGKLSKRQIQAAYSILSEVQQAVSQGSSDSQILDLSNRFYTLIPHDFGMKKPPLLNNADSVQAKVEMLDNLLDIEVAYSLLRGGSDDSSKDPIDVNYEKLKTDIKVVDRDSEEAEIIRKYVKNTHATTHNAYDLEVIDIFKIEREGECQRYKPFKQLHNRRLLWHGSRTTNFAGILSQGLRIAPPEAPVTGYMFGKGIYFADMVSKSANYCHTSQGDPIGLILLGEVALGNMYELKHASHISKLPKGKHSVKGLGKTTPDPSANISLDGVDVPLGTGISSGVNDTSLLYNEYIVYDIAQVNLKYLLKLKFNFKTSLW
T1 sequence (P35968 whole entry): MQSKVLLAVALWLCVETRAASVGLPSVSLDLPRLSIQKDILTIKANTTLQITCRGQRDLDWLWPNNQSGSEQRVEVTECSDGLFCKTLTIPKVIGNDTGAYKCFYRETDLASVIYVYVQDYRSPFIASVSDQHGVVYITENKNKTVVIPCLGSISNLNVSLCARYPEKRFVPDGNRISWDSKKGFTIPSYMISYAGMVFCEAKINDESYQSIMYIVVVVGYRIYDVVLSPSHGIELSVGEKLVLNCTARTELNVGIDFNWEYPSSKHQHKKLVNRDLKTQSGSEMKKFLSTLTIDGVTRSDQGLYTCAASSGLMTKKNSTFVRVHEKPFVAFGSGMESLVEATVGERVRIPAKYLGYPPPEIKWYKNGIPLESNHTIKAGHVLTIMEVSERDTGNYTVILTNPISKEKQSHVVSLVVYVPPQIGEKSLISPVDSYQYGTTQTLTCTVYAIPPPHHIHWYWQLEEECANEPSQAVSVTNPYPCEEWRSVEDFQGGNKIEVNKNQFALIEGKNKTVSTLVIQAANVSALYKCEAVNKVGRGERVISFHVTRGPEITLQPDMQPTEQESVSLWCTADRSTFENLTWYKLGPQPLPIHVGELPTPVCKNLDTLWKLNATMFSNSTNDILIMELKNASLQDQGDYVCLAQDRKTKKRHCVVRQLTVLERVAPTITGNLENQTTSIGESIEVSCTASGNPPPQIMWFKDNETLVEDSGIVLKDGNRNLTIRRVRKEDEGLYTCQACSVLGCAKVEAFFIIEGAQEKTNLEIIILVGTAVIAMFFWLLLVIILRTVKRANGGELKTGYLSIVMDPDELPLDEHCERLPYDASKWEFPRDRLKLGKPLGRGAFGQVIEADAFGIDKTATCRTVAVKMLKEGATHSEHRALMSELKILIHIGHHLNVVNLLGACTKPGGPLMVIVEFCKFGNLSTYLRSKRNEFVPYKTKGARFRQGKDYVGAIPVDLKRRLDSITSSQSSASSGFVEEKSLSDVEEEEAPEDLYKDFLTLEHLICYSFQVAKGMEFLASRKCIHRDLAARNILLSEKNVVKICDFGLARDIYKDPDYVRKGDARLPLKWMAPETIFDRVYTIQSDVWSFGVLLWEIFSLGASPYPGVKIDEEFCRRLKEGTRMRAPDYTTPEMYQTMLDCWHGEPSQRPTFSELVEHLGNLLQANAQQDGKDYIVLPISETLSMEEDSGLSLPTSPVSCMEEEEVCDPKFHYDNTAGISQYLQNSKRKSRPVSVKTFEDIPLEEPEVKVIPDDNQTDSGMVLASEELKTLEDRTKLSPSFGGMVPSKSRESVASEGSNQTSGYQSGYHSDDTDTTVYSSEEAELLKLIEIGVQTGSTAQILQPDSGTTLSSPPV
Sequence of Vascular endothelial growth factor receptor 3 (Homo sapiens) (P35916 whole entry): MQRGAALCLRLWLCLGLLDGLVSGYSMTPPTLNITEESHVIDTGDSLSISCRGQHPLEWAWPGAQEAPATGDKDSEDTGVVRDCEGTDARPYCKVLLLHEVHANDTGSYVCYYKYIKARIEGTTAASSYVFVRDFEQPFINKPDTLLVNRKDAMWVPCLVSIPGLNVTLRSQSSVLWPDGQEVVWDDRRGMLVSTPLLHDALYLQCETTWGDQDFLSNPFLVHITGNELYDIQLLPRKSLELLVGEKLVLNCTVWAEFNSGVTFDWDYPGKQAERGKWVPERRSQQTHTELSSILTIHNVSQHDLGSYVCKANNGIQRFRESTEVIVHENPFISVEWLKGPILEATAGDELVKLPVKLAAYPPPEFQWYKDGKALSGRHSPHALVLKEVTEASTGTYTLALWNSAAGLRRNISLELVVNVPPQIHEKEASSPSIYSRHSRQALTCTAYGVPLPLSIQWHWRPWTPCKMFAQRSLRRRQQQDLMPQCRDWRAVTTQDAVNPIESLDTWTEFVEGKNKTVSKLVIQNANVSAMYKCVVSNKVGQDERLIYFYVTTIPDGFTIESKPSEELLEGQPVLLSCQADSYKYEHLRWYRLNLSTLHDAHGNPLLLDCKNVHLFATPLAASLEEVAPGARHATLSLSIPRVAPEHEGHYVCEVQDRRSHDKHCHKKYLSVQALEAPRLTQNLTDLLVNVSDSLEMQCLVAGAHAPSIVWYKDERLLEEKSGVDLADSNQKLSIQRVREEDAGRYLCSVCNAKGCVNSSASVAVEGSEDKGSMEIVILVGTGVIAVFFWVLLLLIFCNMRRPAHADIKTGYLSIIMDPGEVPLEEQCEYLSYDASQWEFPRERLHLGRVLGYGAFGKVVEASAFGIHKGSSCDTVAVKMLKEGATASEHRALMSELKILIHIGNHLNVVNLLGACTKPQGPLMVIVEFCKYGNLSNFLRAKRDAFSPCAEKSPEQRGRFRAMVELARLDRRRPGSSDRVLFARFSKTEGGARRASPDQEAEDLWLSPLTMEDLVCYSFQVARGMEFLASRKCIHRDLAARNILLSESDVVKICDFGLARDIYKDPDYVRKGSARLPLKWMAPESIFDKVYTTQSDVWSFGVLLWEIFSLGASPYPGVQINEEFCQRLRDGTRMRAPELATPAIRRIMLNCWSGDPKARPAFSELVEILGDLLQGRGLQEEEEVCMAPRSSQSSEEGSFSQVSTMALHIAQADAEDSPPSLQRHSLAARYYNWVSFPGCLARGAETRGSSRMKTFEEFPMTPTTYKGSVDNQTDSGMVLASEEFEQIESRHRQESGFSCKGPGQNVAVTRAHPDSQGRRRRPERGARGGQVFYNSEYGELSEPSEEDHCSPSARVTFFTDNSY

inhibition [3]: 89.6%
SMILES: N=C(N)NS(=O)(=O)c1ccc(Nc2ccc(Nc3cccc(NC(=O)CCCl)c3)nn2)cc1
IC50 (HCT-116 [1]): 39 µM
inhibition (INH) [2]: 10%

IC50 [5]: 0.11 µM
SMILES: O=C(NNc1nn2cnnc2c2ccccc12)NC1CCCCC1
IC50 (HCT-116 [4]): 6.04 µM
IC50 (MCF7 [6]): 8.8 µM

SMILES: Cc1n[nH]c(=S)cc1Cc1cc2cc(Cl)ccc2o1
IC50 (MDA-MB-468): 11.5 µM

SMILES: Cc1n[nH]c(=O)cc1Cc1cc2cc(Cl)ccc2o1
IC50 (MDA-MB-468): 9.01 µM

SMILES: COC(=O)CNC(=O)Cn1nc(Cc2ccccc2)c2ccccc2c1=O
IC50 (HepG2 [7]): 5.7 mg/L (≈ 15.6 µM)

SMILES: C=CC[Se]c1ccc(S(=O)(=O)CCC)nn1
Activity (MCF7 [8]): 9.28%
Activity (Hep 3B2 [9]): 5.46%
IC50 (Hep 3B2 [10]): 30.7 µM
IC50 (MCF7 [11]): 33.8 µM

IC50 (MDA-MB-231): 12 µM
SMILES: O=C1Nc2ccc(F)cc2/C1=N/Nc1nnc(-c2ccc(Cl)cc2)c2ccccc12

IC50 [5]: 0.91 µM
SMILES: S=C(NNc1nn2cnnc2c2ccccc12)Nc1ccccc1

SMILES: COc1cc2c(Oc3ccc(NC(=O)c4nn(-c5ccccc5)ccc4=O)cc3F)ccnc2cc1OCCCN1CCN(C)CC1
IC50 (HepG2 [12]): 0.49 µM
IC50 (MCF7 [6]): 0.006 µM
IC50 (A549 [13]): 0.003 µM

IC50 (HepG2 [14]): 14.8 µM
IC50 (MCF7 [15]): > 37 µM
SMILES: COc1ccc(-c2cc(Cc3ccc(Cl)cc3)c(=O)[nH]n2)cc1

IC50 [16]: 0.34 µM
IC50 (MCF7 [17]): 0.11 µM
SMILES: Cc1ccc2nnc(C(=O)NNC(N)=S)c(N)c2c1
IC50 (MCF-12A): 64.2 µM

SMILES: Sc1nnc(Cc2ccccc2)c2ccccc12
IC50 (PC-3): 8.6 mg/L (≈ 34.1 µM)

IC50 [18]: 0.0367 µM
SMILES: O=C(c1ccc(Cc2n[nH]c(=O)c3cccnc23)cc1)N1CCCC1

Activity [19]: 3%
SMILES: O=C(Nc1ccc(Cl)c(C(F)(F)F)c1)Nc1nnc2ccc(N3CCOCC3)nn12

IC50 [20]: 0.0082 µM
SMILES: COC1CN(C(=O)c2cc(Cc3n[nH]c(=O)c4ccccc34)ccc2F)C1

IC50 [5]: 0.31 µM
SMILES: O=C(NNc1nn2cnnc2c2ccccc12)Nc1ccccc1

SMILES: CC(C)c1ccc(OCC(=O)NNc2ccc(Cl)nn2)c(C(C)C)c1
IC50 (Ca-Ski): 7.5 µM
IC50 (HepG2 [21]): 6.9 µM
IC50 (A549 [22]): 6.6 µM
IC50 (A498): 6.8 µM
IC50 (SiHa): 7.8 µM

IC50 (MDA-MB-231): 12 µM
SMILES: O=C1Nc2ccc(Br)cc2/C1=N/Nc1nnc(-c2ccc(Cl)cc2)c2ccccc12

SMILES: Cc1ccc(-c2cc(-c3c(-c4ccccc4)[nH]c4ccccc34)c(Nc3ccc(/N=N/c4c(C)nc(N)nc4C)cc3)nn2)cc1C
IC50 (HCT-116 [23]): 2.1 mg/L (≈ 3.41 µM)

SMILES: COc1ccc(NC(=O)CSc2nnc(-c3ccccc3)c3ccccc23)cc1
IC50 (ECa-109 cell line): 8.13 µM

SMILES: O=c1c(CNc2ccccc2)cc(-c2ccccc2CO)nn1Cc1ccccc1
IC50 (SK-MEL): 4.2 µM
IC50 (KB): 2.3 µM

IC50 (HT-29): 4.5 µM
IC50 (MIA PaCa-2): 2.2 µM
SMILES: COc1nc2ccc(C)cc2cc1Cc1cc(-c2ccccc2)n[nH]c1=O

SMILES: Sc1nnc(-c2ccc(Oc3ccccc3)cc2)c2ccccc12
IC50 (PC-3): 9.22 mg/L (≈ 27.9 µM)

IC50 [20]: 0.0042 µM
SMILES: COC1CCN(C(=O)c2cc(Cc3n[nH]c(=O)c4ccccc34)ccc2F)C1 (centres undefined)

IC50 [20]: 0.0047 µM
SMILES: COC1CCCN(C(=O)c2cc(Cc3n[nH]c(=O)c4ccccc34)ccc2F)CC1 (centres undefined)

IC50 (A549 [24]): 1.25 µM
SMILES: CNC(=O)c1cc(Oc2ccc(NC(=O)Nc3ccc(Cl)c(C(F)(F)F)c3)cc2)ccn1 [SORAFENIB]

SMILES: CC(=O)C(=NNc1ccc(Nc2nnc(-c3ccc(C)c(C)c3)cc2-c2c(-c3ccccc3)[nH]c3ccccc23)cc1)C(C)=O
IC50 (MCF7 [25]): 2.2 mg/L (≈ 3.71 µM)

IC50 [27]: 0.00012 µM
IC50 (A549 [24]): 0.37 µM
SMILES: CNC(=O)c1cc(Oc2ccc(NC(=O)c3nn(-c4ccc(Cl)cc4)cc(C)c3=O)cc2)ccn1
Ratio IC50 (A549 [26]): 3.4

SMILES: Cc1n[nH]c(=O)cc1Cc1cc2cc(Cl)cc(Br)c2o1
IC50 (MDA-MB-468): 3.1 µM
